| melting point | Structure (SMILES) |
| --- | --- |
| 64 to 65 °C | Cc1cc(N(C)C)ccc1C=Nc1cc(Cl)c(N=CN(C)C)c(Cl)c1 |
| 78 to 80 °C | O=C(CN1CCN(C(=O)OCc2ccccc2)CC1)Nc1ccccn1 |
| 65 to 69 °C | CCCCN(Cc1ccc(-c2ccccc2-c2nc(=O)o[nH]2)cc1)c1ncncc1C(=O)OCC |
| 155 °C | ON=C(Cc1ccc(F)cc1)c1ccncc1 |
| 45 to 46.5 °C | COC(=O)c1csnc1-c1cc(C(F)(F)F)cc(C(F)(F)F)c1 |
| 135 to 136 °C | COc1cc(CCCCC2OC(=O)NC2=O)ccc1OCc1nc(-c2ccccc2)oc1C (stereo not given) |
| 306 to 308 °C | Oc1cc(-c2ccc(Cl)cc2)nc2ccnn12 |
| 102 to 103 °C | CCCCOc1ccc(SCCSc2ccc(OCCCC)cc2)cc1 |
| 123 to 124 °C | CCCCCCCCCCCCCCCC(=O)OCC1OC(N2CNC(N)=NC2=O)CC1O (stereo not given) |
| 289 to 291 °C | COCCCNC(=O)C1CCN(C(=O)c2[nH]c(C)c(-c3nc4ccc(C(=O)c5ccccc5)cc4[nH]3)c2C)CC1 |
| 227 to 228 °C | O=C(NC1CCOc2cc(C(=O)O)ccc21)OCc1ccccc1 (stereo not given) |
| 160 to 163 °C | CCn1ncc2c(NCC3CCCCC3)c3cc(OCC4CO4)ccc3nc21 (stereo not given) |
| 234 to 237 °C | Nc1c2c(nc3cc(F)ccc13)CCSC2 |
| 154 to 155 °C | COc1ccc(C(=O)Cc2c(Cl)cccc2Cl)c2c1OCCO2 |
| 226 °C | COc1cccc(-c2nc(=O)c3ccccc3s2)n1 |
| 92 to 94 °C | CC(=O)N1CCc2ccc(C(=O)CCCC3CCN(Cc4ccc(F)cc4)CC3)cc2CC1 |
| 252 to 254 °C | C#Cc1ccc(-c2c(C)n[nH]c(=O)c2-c2c(F)cc(F)cc2F)cc1 |
| 193 to 195 °C | CCNC(=S)N1CCN(c2ccc3ccccc3n2)CC1 |
| 123 to 124 °C | ON=C1CCSc2sccc21 |
| 232 to 235 °C | O=C(Nc1c(F)cccc1F)c1c(O)ccn2c1nc1ccccc12 |
| 198 to 200 °C | CC1=C(C(=O)OC(C)C)C(c2cccc(Cl)c2)NC(=O)N1C(=O)NC(C)c1ccccc1 (stereo not given) |
| 102 to 106 °C | OCCCc1ccc(Nc2c(-c3nnc(NCCN4CCOCC4)o3)ccc(F)c2F)c(F)c1 |
| 89 to 94 °C | COc1ccccc1N1CCN(CCNc2ccccn2)CC1 |

| melting point | Structure (SMILES) |
| --- | --- |
| 180 °C | COc1ccc(CN(C)CCc2ccc(NC(=O)c3cccc4c(=O)c5ccccc5sc34)cc2)cc1OC |
| 123 to 128 °C | CCc1ccc([N+](=O)[O-])cc1CNC(C)=O |
| 62 to 67 °C | CC(O)CCc1cc(C(C)(C)C)c(O)c(C(C)(C)C)c1 (stereo not given) |
| 248 to 250 °C | Nc1ncnc2c1sc(=O)n2C1OC(CO)C(O)C1O (stereo not given) |
| 179 to 180 °C | COc1ccc(F)cc1C(=O)NC1COc2cc(OC)c(S(=O)(=O)NC(=S)NC(C)C)cc2C1 (stereo not given) |
| 142 to 143 °C | CCCCCNS(=O)(=O)NC(=O)OCc1ccccc1 |
| 159 to 160 °C | CCCc1nc2c(N)nc3ccccc3c2o1 |
| 196 °C | COc1cc2ncnc(Nc3cccc(Cl)c3F)c2cc1OC1CCN(C(=O)CO)CC1 |
| 217 to 219 °C | COC(=O)C1=C(C)NC(=O)N(C)C1c1cccc([N+](=O)[O-])c1 (stereo not given) |
| 227 to 228 °C | O=C1CCC2=C(CCc3cc(Br)ccc32)N1 |
| 102 to 103 °C | COc1ccc(C2=NN(CCCCBr)C(=O)[C@H]3CC=CC[C@@H]23)cc1OC (relative stereo) |
| 70 to 72 °C | CCOC(=O)C(C)Oc1ncn(-c2cccc(Cl)c2)n1 (stereo not given) |
| 98 to 99 °C | CCOC(=O)C=C1NC(C)=C(C(=O)OCC)C(c2ccccc2C(F)(F)F)C1C(=O)OCC (stereo not given) |
| 275 °C | CCCC(=O)Nc1ccc2c(c1)C(=O)c1cc(NC(=O)CCC)ccc1C2=O |
| 112 to 114 °C | C[N+]([O-])=C(Cn1ccnc1)c1ccc2ccccc2c1 |
| 205 °C | CCCCc1nc(Cl)c(CC(=O)O)c(Cc2ccc(C(=O)O)cc2)n1 |
| 266 to 268 °C | CCCn1c(=O)c2c(nc(C=Cc3cc(OC)c(OC)cc3S(N)(=O)=O)n2C)n(CCC)c1=O |
| 155 to 156 °C | CCCc1nc2c(N)nc3cccnc3c2n1CCCCN(OC)C(=O)Nc1ccccc1 |
| 168 to 170 °C | CCn1c(=S)c2[nH]c(C(C)C)nc2n(CC)c1=O |
| 151 °C | NC(=O)c1cc(C(=O)N(CCO)CCO)cc([N+](=O)[O-])c1 |
| 188 to 189 °C | N#Cc1c(NC(=O)CO)cccc1NC(=O)CO |
| 161 to 163 °C | O=C1N(Cc2sccc2Cl)c2ccccc2C12COc1cc3c(cc12)OCO3 (stereo not given) |
| 55 to 56 °C | CC(C)(C)COc1ccc(N)cc1C#N |

| melting point | Structure (SMILES) |
| --- | --- |
| 143 to 144 °C | Cc1nnc(NCCCOc2cccc(CN3CCCCC3)c2)n1C |
| 225 °C | Cc1ccc(-c2coc3c(O)c(O)ccc3c2=O)cc1 |
| 175 to 177 °C | C=C(CCC(C)C1CCC2(O)C3=C(C(=O)CC12C)C1(C)CCC(=O)C(C)C1CC3O)C(C)C(=O)O (stereo not given) |
| 124 to 126 °C | COc1ccc(N2CCN(c3c(C)c(C)c4c(c3C)C(O)(CCc3ccccc3)C(C)(C)O4)CC2)cc1 (stereo not given) |
| 199 to 202 °C | CS(=O)(=O)Nc1cccc(Nc2nc(NCCc3ccccn3)c3nc[nH]c3n2)c1 |
| 120 to 122 °C | Cc1cccc(Nc2cc(Nc3cccc(OCC(O)CN(C)C)c3)ncn2)c1 (stereo not given) |
| 108 to 110 °C | COc1c(Br)cc(Br)c(OC)c1C(=O)O |
| 145 °C | O=C(Nc1ccccc1Cl)Oc1ccc2c(c1)N(Cc1ccccc1)CCC2 |
| 218 °C | Cc1cc2c(cc1O)C(C1(c3ccccn3)CC1)N(C)CC2 (stereo not given) |
| 61 to 70 °C | Cc1cc(Br)cnc1CCCCNc1ncc(Cc2ccc(CO)nc2)c(=O)[nH]1 |
| 178 to 181 °C | CCOC(=O)C1=C(COCCNC=O)NC(C)=C(C(=O)OC)C1c1cccc(Cl)c1Cl (stereo not given) |
| 150 to 152 °C | CCn1ncc(C(=O)c2ccc(S(C)(=O)=O)c(C(=O)OC)c2C)c1O |
| 104 to 106 °C | COC(=O)C(=O)CC(=O)c1ccc(Cc2ccc(Cl)c(Cl)c2)cc1 |
| 232 to 233 °C | CCCc1ccc2nc(S(=O)(=O)CC)c(S(N)(=O)=O)n2n1 |
| 126 to 128 °C | Cn1ccnc1COc1cc(Cl)ncn1 |
| 214 to 216 °C | COc1ccc(Nc2ncccc2NS(=O)(=O)c2ccc(O)cc2)cc1 |
| 141 to 143 °C | CCOC(=O)c1c(O)c2cc(Cl)ccc2n(C)c1=O |
| 97 °C | C[C@@H](S[C@H]1CO[C@H](c2ccc(C(=O)NCc3cccc4ccccc34)cc2)OC1)[C@](O)(Cn1cncn1)c1ccc(F)cc1F |
| 136 to 138 °C | CCCc1nc2c(N)nc3cc(-c4cccnc4)ccc3c2n1CCCCNC(=O)OC(C)(C)C |
| 189 °C | NCc1ccc(-c2csc(N)n2)s1 |
| 106 to 108 °C | COc1cccc(-c2nc3sccn3c2-c2ccnc(N[C@@H]3CCCN(C[C@@H](O)CO)C3)n2)c1 |
| 117 to 119 °C | CCN(CC)C(=O)/C=C(\C)c1ccc(OC(C)c2ccccc2)c(OC(C)(C)C(=O)O)c1 (stereo not given) |
| 242 to 245 °C | Cc1nc(-c2ccc(OCC(C)(C)C)c([N+](=O)[O-])c2)sc1C(=O)O |

| melting point | Structure (SMILES) |
| --- | --- |
| 157 to 158 °C | O=c1cc(-c2cc3ccccc3[nH]2)oc2ccccc12 |
| 177 °C | Cc1cc(C#N)cc(C(=O)Nc2ccc(F)c(C)c2)n1 |
| 208 °C | O=C(O)CNc1nccc(-n2cc(C3c4ccccc4C=Cc4ccccc43)c(=S)[nH]c2=O)n1 |
| 191 °C | CCCCn1ccc(-c2ccc3c(ccn3[C@H]3CC[C@H](O)CC3)c2)c(Cl)c1=O |
| 192 to 220 °C | COc1cc(C2CCN(C[C@H](O)CO)CC2)ccc1Nc1ncc2ccc(-c3cccc(S(=O)(=O)NC(C)(C)C)c3)n2n1 |
| 300 to 302 °C | CC(C)c1ccc(C(=O)C2=C(O)C(=O)N(c3ncc(S(=O)(=O)c4ccc([N+](=O)[O-])cc4)s3)C2c2ccc(C(F)(F)F)cc2)cc1 (stereo not given) |
| 167 to 168 °C | NC(=O)c1cc(-c2ncc(C(F)(F)F)cc2Cl)ccc1Cl |
| 95 to 97 °C | CN1C(=O)CSC=C1c1ccccc1 |
| 90 to 92 °C | COC(=O)c1ccc(C#N)cc1Cl |
| 115 to 120 °C | COC(=O)c1nc(-c2ccc(Cl)c(OC)c2F)cc(NC(C)=O)c1OCc1ccccc1 |
| 77 °C | N#CCc1ccc(N)c(Cl)c1 |
| 209 to 210 °C | Nc1c(NCCCOc2cccc(C3OCCO3)c2)c(=O)c1=O |
| 213 to 216 °C | Nc1ccc(C(=O)NC2CCN(c3ccccc3)C2)cc1 (stereo not given) |
| 88 to 90 °C | O=C(O)COCCOCCN1C(=O)c2ccccc2C1=O |
| 243 to 244 °C | Cc1cnc(N2C(=O)C(O)=C(C(=O)c3ccc(C(C)C)cc3)C2c2ccc(OC(F)(F)F)cc2)s1 (stereo not given) |
| > 250 °C | CCCn1c(COCC)nc2c(N)nc3cc(O)ccc3c21 |
| 225 to 226 °C | Nc1nc2c(cnn2CCc2ccccc2)c2nc(-c3ccco3)nn12 |
| 102 to 104 °C | CC1(C)c2cc(OS(C)(=O)=O)ccc2OC1OC(=O)c1ccccc1 (stereo not given) |
| 192 to 198 °C | CN1CCN(c2ccc(/C=C/c3cc(/C=C/c4ccc5cc[nH]c5c4)[nH]n3)cc2)CC1 |
| 205 to 206 °C | COC1(OC)CCN(c2nc3c(cc2F)C=C(C(=O)O)CN3c2ccc(F)cc2F)C1 |
| 207 to 209 °C | O=C(O)c1cccc(NCc2cccc(Cl)c2)c1C(=O)O |
| 136 to 139 °C | CP(C)(=O)COc1cc(Cl)c(C=O)c(Cl)c1 |

| Structure (SMILES) | melting point |
| --- | --- |
| CC(C)(C)N1Cc2ccccc2P1(=O)c1ccccc1 (stereo not given) | 89 to 91 °C |
| O[C@H](COc1cccc2[nH]ccc12)CN1CC=C(c2c[nH]c3ccc(F)cc23)CC1 | 95 to 100 °C |
| NC(=O)c1cccc2c1OC(CN1CC=C(c3c[nH]c4ccc(F)cc34)CC1)CO2 (stereo not given) | 195 to 197 °C |
| CN1Cc2c(-c3nc(CCl)cs3)ncn2-c2ccc(F)c(Cl)c2C1=O | 234 to 235 °C |
| Cc1ccc(C(O)(c2ccc(C)cc2)C2CCNCC2)cc1 | 150 to 153 °C |
| N=C(N[N+](=O)[O-])N1CCCC1 | 188 to 191 °C |
| CN1C2CCC1CC(c1n[nH]c3cc(F)ccc13)C2 (stereo not given) | 235 to 236 °C |
| CCN1CCC(O)(c2cccc(F)c2F)C1 (stereo not given) | 119 to 120 °C |
| CC(=O)c1c(S(=O)(=O)C(F)(F)F)c(C#N)nn1-c1c(Cl)cc(C(F)(F)F)cc1Cl | 161 °C |
